# Measured values taken from PubChem BioAssay (NCI).
#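 How tested: cells in 96-well plates exposed to compound for 48 hours at five concentrations. GI50 = concentration required for 50% inhibition of growth. TGI denotes the concentration required for complete inhibition of growth.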
# System: A549 NSCLC
# Assay: NCI anticancer screen, dose series, 48 h
Structure (SMILES),TGI,GI50
COc1ccc(/C(Cl)=C(\C=O)c2ccc([N+](=O)[O-])cc2)cc1,66.6 µM,
Cc1ccc(-c2cc(=O)c3cc(C)c(C)c(C(=O)O)c3o2)cc1C,> 100 µM,
O=C(/C=C/c1c(O)ccc2ccccc12)c1ccccc1,> 100 µM,
Cc1nc2ccccc2c(=O)n1-c1ccccc1F,> 100 µM,
C=C[C@H]1C[C@@H]2C[C@@H]3[C@H]4C/C=C\C(=O)NCCCC5NC(=O)C(=C(O)/C=C/[C@@H]4CC(=O)[C@H]3[C@@H]2[C@H]1C)C5=O (stereo partly drawn),1.91 µM,0.62 µM
Fc1ccc(C2SCc3nc4ccccc4n32)cc1Cl (stereo not drawn),> 100 µM,
C=C1CC[C@@H]2[C@](C)(COC(C)=O)[C@H](OC(C)=O)CC[C@@]2(C)[C@@H]1CC(Nc1ccc(S(=O)(=O)Nc2ncccn2)cc1)C1=CCOC1=O (stereo partly drawn),9.97 µM,3.18 µM
CC1=N/C(=C\c2cccc([N+](=O)[O-])c2)C(=O)O1,> 100 µM,
Cn1c2ccccc2c2c3[nH]c(=O)[nH]c(=O)c3c3c4ccccc4n(C)c3c21,> 100 µM,2.86 µM
CO[C@H]1C=C[C@@]23c4cc5c(cc4CO[C@]2(O)CN(C)[C@H]3C1)OCO5,> 100 µM,
COC(=O)c1c(C)[nH]c(/C=C2\N=C(c3ccc[nH]3)C=C2OC)c1C,,0.387 µM
CC(C)c1cc2c(O)c(c1)Cc1cc(C(C)C)cc(c1O)Cc1cc(C(C)C)cc(c1O)Cc1cc(C(C)C)cc(c1O)C2,> 100 µM,
COc1ccc(/C=C\c2cc(OC)c(OC)c(OC)c2)cc1OC(=O)NCCN(C)C,> 41.3 µM,< 0.028 µM
CCCCOC(=O)NC(=O)c1cn(C2CCCCC2)c(=O)[nH]c1=O,> 100 µM,
Cc1ccc(NC(=O)NCCCOc2ccc(N3C(N)=NC(N)=NC3(C)C)cc2Cl)cc1S(=O)(=O)F,> 100 µM,2.83 µM
CC[CH2][Sn]([Cl])([Cl])[CH2]CC.Oc1ccccc1C=NCCN=Cc1ccccc1O,41 µM,19.2 µM
COc1cc2c(c(OC)c1)C1(CC(CC#N)C2)SCCS1 (stereo not drawn),> 100 µM,

Structure (SMILES),TGI,GI50
CCOC(=O)CCn1[nH]c(=O)c(Cl)c(Cl)c1=O,> 100 µM,
COc1cc2c(c(OC)c1OC)C(=O)[C@@H]1c3ccc([N+](=O)[O-])cc3C(=O)N(CCCBr)[C@H]21,45.5 µM,12.3 µM
COc1ccc(CNc2nc3cc(C(F)(F)F)ccc3nc2C)cc1OC,> 100 µM,
C/C=C1/C(=C/c2[nH]c(/C=c3\[nH]/c(=C/C4=NC(=O)C(CC)=C4C)c(C)c3CCC(=O)O)c(CCC(=O)O)c2C)NC(=O)C1C (stereo not drawn),> 150 µg/mL,> 150 µg/mL
COc1cccc(/C=C2\C(=O)N(C(=O)c3ccc(NC(C)=O)cc3)N=C2C)c1,> 100 µM,
N#CCc1ccc(C(C#N)/C(CCCC(=O)Nc2cccc([N+](=O)[O-])c2)=N/NC(N)=S)cc1 (stereo not drawn),> 100 µM,
CC(C)c1ccc(C(c2ccc(OCC(=O)O)cc2)c2ccc(C(C)C)cc(=O)c2O)c(O)c(=O)c1,21.3 µM,
N#C/C(=C\c1cc2ccccc2c2ccccc12)c1ccccc1,> 100 µM,
CCOc1ccc2c(c1)[n+]([O-])c(-c1nc3ccccc3s1)c(N)[n+]2[O-],> 100 µM,
COc1ccc2c3c(coc13)C(CCC(=O)O)CC2 (stereo not drawn),> 100 µM,
c1cc[c]([Pb]([c]2ccccc2)[c]2ccccc2)cc1,> 100 µM,60 µM
CC(=O)N1C/C(=C\c2ccc(N(C)C)cc2)C(=O)/C(=C/c2ccc(N(C)C)cc2)C1,> 100 µM,
CCC(=O)c1c(C(F)(F)F)n([O-])c2ccc(C)cc2[n+]1=O,> 50 µM,11.3 µM
COc1ccc(C2SCC(=O)N2NC(=O)Nc2c(C)nc3ccccn23)cc1 (stereo not drawn),> 100 µM,> 100 µM
COC1=CC2(C=CC1=O)c1cc(OC)c(OC)cc1CCN2C(=O)c1ccccc1 (stereo not drawn),> 100 µM,
Cc1[nH]c2ccccc2c1C1Cc2ccccc2N1C(=O)/C(Cl)=C/c1ccccc1 (stereo not drawn),> 100 µM,

# System: SN12C renal
# Assay: NCI anticancer screen, dose series, 48 h
Structure (SMILES),TGI,GI50
COc1ccc(/C(Cl)=C(\C=O)c2ccc([N+](=O)[O-])cc2)cc1,49.1 µM,
Cc1ccc(-c2cc(=O)c3cc(C)c(C)c(C(=O)O)c3o2)cc1C,> 100 µM,
O=C(/C=C/c1c(O)ccc2ccccc12)c1ccccc1,> 100 µM,
Cc1nc2ccccc2c(=O)n1-c1ccccc1F,> 100 µM,
C=C[C@H]1C[C@@H]2C[C@@H]3[C@H]4C/C=C\C(=O)NCCCC5NC(=O)C(=C(O)/C=C/[C@@H]4CC(=O)[C@H]3[C@@H]2[C@H]1C)C5=O (stereo partly drawn),0.342 µM,0.182 µM
Fc1ccc(C2SCc3nc4ccccc4n32)cc1Cl (stereo not drawn),35.7 µM,
C=C1CC[C@@H]2[C@](C)(COC(C)=O)[C@H](OC(C)=O)CC[C@@]2(C)[C@@H]1CC(Nc1ccc(S(=O)(=O)Nc2ncccn2)cc1)C1=CCOC1=O (stereo partly drawn),1.96 µM,0.43 µM
CC1=N/C(=C\c2cccc([N+](=O)[O-])c2)C(=O)O1,> 100 µM,
Cn1c2ccccc2c2c3[nH]c(=O)[nH]c(=O)c3c3c4ccccc4n(C)c3c21,> 100 µM,4.21 µM
CO[C@H]1C=C[C@@]23c4cc5c(cc4CO[C@]2(O)CN(C)[C@H]3C1)OCO5,> 100 µM,
CC(C)N1CN(C(C(=O)N[C@@H]2C(=O)N3C2SC(C)(C)C3C(=O)O)c2ccccc2)CSC1=S (stereo partly drawn),> 100 µM,
COC(=O)c1c(C)[nH]c(/C=C2\N=C(c3ccc[nH]3)C=C2OC)c1C,> 75.4 µM,0.389 µM
CCCCOC(=O)NC(=O)c1cn(C2CCCCC2)c(=O)[nH]c1=O,> 100 µM,
CC(C)CCCC(=O)CCCCCCC(=O)CCN(O)C(=O)C(N)CO (stereo not drawn),43 µM,
CC[CH2][Sn]([Cl])([Cl])[CH2]CC.Oc1ccccc1C=NCCN=Cc1ccccc1O,23.8 µM,11.3 µM
COc1cc2c(c(OC)c1)C1(CC(CC#N)C2)SCCS1 (stereo not drawn),> 100 µM,
CCOC(=O)CCn1[nH]c(=O)c(Cl)c(Cl)c1=O,> 100 µM,

Structure (SMILES),TGI,GI50
COc1cc2c(c(OC)c1OC)C(=O)[C@@H]1c3ccc([N+](=O)[O-])cc3C(=O)N(CCCBr)[C@H]21,29.9 µM,7.67 µM
COc1ccc(CNc2nc3cc(C(F)(F)F)ccc3nc2C)cc1OC,> 100 µM,
C/C=C1/C(=C/c2[nH]c(/C=c3\[nH]/c(=C/C4=NC(=O)C(CC)=C4C)c(C)c3CCC(=O)O)c(CCC(=O)O)c2C)NC(=O)C1C (stereo not drawn),> 150 µg/mL,> 150 µg/mL
COc1cccc(/C=C2\C(=O)N(C(=O)c3ccc(NC(C)=O)cc3)N=C2C)c1,> 100 µM,
N#CCc1ccc(C(C#N)/C(CCCC(=O)Nc2cccc([N+](=O)[O-])c2)=N/NC(N)=S)cc1 (stereo not drawn),> 100 µM,
COC(C(O)c1ccc2c(c1)OCO2)P(=O)(c1ccccc1)c1ccccc1 (stereo not drawn),> 100 µM,
CC(C)c1ccc(C(c2ccc(OCC(=O)O)cc2)c2ccc(C(C)C)cc(=O)c2O)c(O)c(=O)c1,24.3 µM,
N#C/C(=C\c1cc2ccccc2c2ccccc12)c1ccccc1,> 95.8 µM,
CCOc1ccc2c(c1)[n+]([O-])c(-c1nc3ccccc3s1)c(N)[n+]2[O-],> 100 µM,
COc1ccc2c3c(coc13)C(CCC(=O)O)CC2 (stereo not drawn),> 100 µM,
COc1ncc(-c2ccc3ncnc(Nc4cccc(Cl)c4)c3c2)cc1NS(=O)(=O)CCN1CCOCC1,> 100 µM,0.293 µM
c1cc[c]([Pb]([c]2ccccc2)[c]2ccccc2)cc1,22.3 µM,8.17 µM
CC(=O)N1C/C(=C\c2ccc(N(C)C)cc2)C(=O)/C(=C/c2ccc(N(C)C)cc2)C1,> 100 µM,
CCC(=O)c1c(C(F)(F)F)n([O-])c2ccc(C)cc2[n+]1=O,19.8 µM,7.39 µM
COc1ccc(C2SCC(=O)N2NC(=O)Nc2c(C)nc3ccccn23)cc1 (stereo not drawn),> 100 µM,54.4 µM
COC1=CC2(C=CC1=O)c1cc(OC)c(OC)cc1CCN2C(=O)c1ccccc1 (stereo not drawn),> 100 µM,
Cc1[nH]c2ccccc2c1C1Cc2ccccc2N1C(=O)/C(Cl)=C/c1ccccc1 (stereo not drawn),> 100 µM,

# System: PC-3 prostate
# Assay: NCI anticancer screen, dose series, 48 h
Structure (SMILES),GI50 [µM],TGI [µM]
C=C[C@H]1C[C@@H]2C[C@@H]3[C@H]4C/C=C\C(=O)NCCCC5NC(=O)C(=C(O)/C=C/[C@@H]4CC(=O)[C@H]3[C@@H]2[C@H]1C)C5=O (stereo partly drawn),1.36,2.76
C=C1CC[C@@H]2[C@](C)(COC(C)=O)[C@H](OC(C)=O)CC[C@@]2(C)[C@@H]1CC(Nc1ccc(S(=O)(=O)Nc2ncccn2)cc1)C1=CCOC1=O (stereo partly drawn),2.11,5.07
Cn1c2ccccc2c2c3[nH]c(=O)[nH]c(=O)c3c3c4ccccc4n(C)c3c21,30.1,> 100
CO[C@H]1C=C[C@@]23c4cc5c(cc4CO[C@]2(O)CN(C)[C@H]3C1)OCO5,,> 100
COC(=O)c1c(C)[nH]c(/C=C2\N=C(c3ccc[nH]3)C=C2OC)c1C,0.349,> 100
CC(C)CCCC(=O)CCCCCCC(=O)CCN(O)C(=O)C(N)CO (stereo not drawn),,28.2
Cc1ccc(NC(=O)NCCCOc2ccc(N3C(N)=NC(N)=NC3(C)C)cc2Cl)cc1S(=O)(=O)F,1.49,> 100
CC[CH2][Sn]([Cl])([Cl])[CH2]CC.Oc1ccccc1C=NCCN=Cc1ccccc1O,6.28,22.7
